Laboratory results as given in the supplement of paper PMC8617591.

Legend:
[1] = system: Mycobacterium tuberculosis Erdman (autoluminescent); experiment: Einf, fitted maximum growth inhibition of three-drug combination (fraction); higher = stronger maximal inhibition
Protocol: (§1)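 DiaMOND equipotent three-drug combination dose responses (10 doses, 1.5- or 2-fold spacing, centred on IC90) against autoluminescent M. tuberculosis Erdman in 8 in vitro models. Read-out is OD600, or luminescence for the intracellular and dormancy models, normalised to untreated wells. Hill-fit Einf, AUC25 and GRinf are potency metrics; FIC50 and FIC90 are total Loewe fractional inhibitory concentrations as log2 (negative = synergy).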

[2] = system: Mycobacterium tuberculosis Erdman (autoluminescent); experiment: total FIC90 (Loewe) at 90% inhibition, three-drug combination (log2); higher = more antagonistic
Protocol: as §1

[3] = system: Mycobacterium tuberculosis Erdman (autoluminescent); experiment: total FIC50 (Loewe) at 50% inhibition, three-drug combination (log2); higher = more antagonistic
Protocol: as §1

[4] = system: Mycobacterium tuberculosis Erdman (autoluminescent); experiment: GRinf, maximum normalised growth rate inhibition (three-drug combination) (unitless (-1 to 1)); higher = less effect (negative = killing)
Protocol: as §1

[5] = system: Mycobacterium tuberculosis Erdman (autoluminescent); experiment: AUC25, normalised area under dose response up to IC25 (three-drug combination) (fraction (0-1)); higher = more potent at low dose
Protocol: as §1

CC(C)/N=c1\cc2n(-c3ccc(Cl)cc3)c3ccccc3nc-2cc1Nc1ccc(Cl)cc1 [clofazimine] + CC[C@@H](CO)NCCN[C@@H](CC)CO [ethambutol] + CO[C@H]1/C=C/O[C@@]2(C)Oc3c(C)c(O)c4c(O)c(c(/C=N/N5CCN(C6CCCC6)CC5)c(O)c4c3C2=O)NC(=O)/C(C)=C\C=C\[C@H](C)[C@H](O)[C@@H](C)[C@@H](O)[C@@H](C)[C@H](OC(C)=O)[C@@H]1C [rifapentine]
Details	AUC25, [5]	Einf, [1]	GRinf, [4]	total FIC50, [3]	total FIC90, [2]
in vitro model: acidic pH 5.7, time point: constant (~7 days, model-specific)	0.0945	0.877	-0.109	0.153	–
in vitro model: acidic pH 5.7, time point: terminal (~4-5 doublings, model-specific)	0.0736	0.978	-0.14	0.358	0.125
in vitro model: intracellular J774, time point: constant = terminal	–	0.973	-0.172	–	-1.79

Details	AUC25, [5]	Einf, [1]	GRinf, [4]	total FIC50, [3]	total FIC90, [2]
in vitro model: butyrate, time point: constant (~7 days, model-specific)	0.083	0.942	-0.0595	0.37	–
in vitro model: butyrate, time point: terminal (~4-5 doublings, model-specific)	0.0656	0.972	-0.043	0.422	-0.0851
in vitro model: cholesterol 0.05 mM, time point: constant (~7 days, model-specific)	0.111	0.703	-0.0332	–	–
in vitro model: cholesterol 0.05 mM, time point: terminal (~4-5 doublings, model-specific)	0.0974	0.871	-0.122	1.66	–
in vitro model: cholesterol-high 0.2 mM, time point: constant (~7 days, model-specific)	0.0285	0.928	-0.371	1.18	–
in vitro model: cholesterol-high 0.2 mM, time point: terminal (~4-5 doublings, model-specific)	0.0668	1	-0.81	1.37	1.24
in vitro model: dormancy (butyrate + nitrate, low O2), time point: constant (~7 days, model-specific)	0.105	0.823	0.414	-0.127	–
in vitro model: dormancy (butyrate + nitrate, low O2), time point: terminal (~4-5 doublings, model-specific)	0.128	0.99	-0.336	0.0752	0.891
in vitro model: standard 7H9 glycerol, time point: constant = terminal	0.105	0.92	0.0206	-0.0963	–
in vitro model: valerate, time point: constant (~7 days, model-specific)	0.126	0.889	0.017	1.07	–
in vitro model: valerate, time point: terminal (~4-5 doublings, model-specific)	0.0898	0.925	0.0199	0.462	0.841

CC(C)/N=c1\cc2n(-c3ccc(Cl)cc3)c3ccccc3nc-2cc1Nc1ccc(Cl)cc1 [clofazimine] + CC[C@@H](CO)NCCN[C@@H](CC)CO [ethambutol] + CO[C@H]1/C=C/O[C@@]2(C)Oc3c(C)c(O)c4c(O)c(c(/C=N/N5CCN(C)CC5)c(O)c4c3C2=O)NC(=O)/C(C)=C\C=C\[C@H](C)[C@H](O)[C@@H](C)[C@@H](O)[C@@H](C)[C@H](OC(C)=O)[C@@H]1C [rifampicin]
Details	AUC25, [5]	Einf, [1]	GRinf, [4]	total FIC50, [3]	total FIC90, [2]
in vitro model: acidic pH 5.7, time point: constant (~7 days, model-specific)	0.0857	0.88	-0.0788	-0.0594	–
in vitro model: acidic pH 5.7, time point: terminal (~4-5 doublings, model-specific)	0.0645	0.973	-0.112	0.213	-0.308
in vitro model: intracellular J774, time point: constant = terminal	–	0.969	-0.295	–	-2.37

Details	AUC25, [5]	Einf, [1]	GRinf, [4]	total FIC50, [3]	total FIC90, [2]
in vitro model: butyrate, time point: constant (~7 days, model-specific)	0.0971	0.95	-0.114	0.276	–
in vitro model: butyrate, time point: terminal (~4-5 doublings, model-specific)	0.1	0.982	-0.114	0.306	0.441
in vitro model: cholesterol 0.05 mM, time point: constant (~7 days, model-specific)	0.126	0.684	-0.277	–	–
in vitro model: cholesterol 0.05 mM, time point: terminal (~4-5 doublings, model-specific)	0.0974	0.785	0.17	2.31	–
in vitro model: cholesterol-high 0.2 mM, time point: constant (~7 days, model-specific)	0.0508	0.93	-0.277	0.891	–
in vitro model: cholesterol-high 0.2 mM, time point: terminal (~4-5 doublings, model-specific)	0.0801	1	-0.923	1.24	1.32
in vitro model: dormancy (butyrate + nitrate, low O2), time point: constant (~7 days, model-specific)	0.0958	0.828	0.515	0.137	–
in vitro model: dormancy (butyrate + nitrate, low O2), time point: terminal (~4-5 doublings, model-specific)	0.0873	0.991	-0.158	0.0335	-0.232
in vitro model: standard 7H9 glycerol, time point: constant = terminal	0.0958	0.922	0.048	-0.0461	–
in vitro model: valerate, time point: constant (~7 days, model-specific)	0.0993	0.858	0.045	0.749	–
in vitro model: valerate, time point: terminal (~4-5 doublings, model-specific)	0.0696	0.929	0.036	0.485	-0.638

CC(C)/N=c1\cc2n(-c3ccc(Cl)cc3)c3ccccc3nc-2cc1Nc1ccc(Cl)cc1 [clofazimine] + CC[C@@H](CO)NCCN[C@@H](CC)CO [ethambutol] + COc1c(N2C[C@@H]3CCCN[C@@H]3C2)c(F)cc2c(=O)c(C(=O)O)cn(C3CC3)c12 [moxifloxacin]
Details	AUC25, [5]	Einf, [1]	GRinf, [4]	total FIC50, [3]	total FIC90, [2]
in vitro model: acidic pH 5.7, time point: constant (~7 days, model-specific)	0.115	0.672	-0.00432	1.25	–
in vitro model: acidic pH 5.7, time point: terminal (~4-5 doublings, model-specific)	0.0596	0.925	-0.127	0.64	-0.564
in vitro model: intracellular J774, time point: constant = terminal	–	0.966	-0.457	–	-0.92

Details	AUC25, [5]	Einf, [1]	GRinf, [4]	total FIC50, [3]	total FIC90, [2]
in vitro model: butyrate, time point: constant (~7 days, model-specific)	0.11	0.96	-0.103	0.505	–
in vitro model: butyrate, time point: terminal (~4-5 doublings, model-specific)	0.0834	0.979	-0.104	0.581	0.553
in vitro model: cholesterol 0.05 mM, time point: constant (~7 days, model-specific)	0.123	0.651	-0.615	–	–
in vitro model: cholesterol 0.05 mM, time point: terminal (~4-5 doublings, model-specific)	0.117	0.885	-0.144	1.19	–
in vitro model: cholesterol-high 0.2 mM, time point: constant (~7 days, model-specific)	0.0933	0.95	-0.699	0.429	–
in vitro model: cholesterol-high 0.2 mM, time point: terminal (~4-5 doublings, model-specific)	0.0951	1	-0.973	0.534	0.957
in vitro model: dormancy (butyrate + nitrate, low O2), time point: constant (~7 days, model-specific)	0.0862	0.817	0.451	0.137	–
in vitro model: dormancy (butyrate + nitrate, low O2), time point: terminal (~4-5 doublings, model-specific)	0.113	0.977	-0.415	0.0118	0.798
in vitro model: standard 7H9 glycerol, time point: constant = terminal	0.0915	0.971	-0.184	0.258	0.732
in vitro model: valerate, time point: constant (~7 days, model-specific)	0.132	0.864	-0.0325	0.987	–
in vitro model: valerate, time point: terminal (~4-5 doublings, model-specific)	0.0712	0.903	0.0757	0.489	-1.39
